This is an account of results in patent US20230390250A1, “MODULATION OF GLUCAGON-LIKE PEPTIDE 1 AND USES THEREOF” (priority 2020, published 2023).

Assay [1] deals with T1, LPAR1 (Homo sapiens, UniProt Q92633). The arrangement: expressed in transfected cells; host or cells: CHO cells. As to conditions: cited from earlier work; for IC50: LPA-induced calcium response, CHO cells with LPAR1.
Target sequence in this assay (Q92633 whole entry): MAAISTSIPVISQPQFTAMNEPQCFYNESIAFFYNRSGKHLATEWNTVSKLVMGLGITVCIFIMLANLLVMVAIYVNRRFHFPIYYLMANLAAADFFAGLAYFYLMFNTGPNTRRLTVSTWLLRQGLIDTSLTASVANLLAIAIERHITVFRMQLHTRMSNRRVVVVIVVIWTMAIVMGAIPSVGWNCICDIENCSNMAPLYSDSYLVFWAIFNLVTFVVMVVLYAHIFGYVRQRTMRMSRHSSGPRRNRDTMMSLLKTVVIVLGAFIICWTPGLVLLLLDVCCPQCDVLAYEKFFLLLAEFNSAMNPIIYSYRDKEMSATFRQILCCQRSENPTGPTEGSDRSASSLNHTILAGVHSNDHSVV
Assay [2] deals with T1, LPAR1. As to conditions: in cells; read-out: IC50 in cells for LPAR1; cited from earlier work.
Target sequence in this assay (Q92633 whole entry, species assumed): as the sequence (Q92633 whole entry) above
The test system of assay [3] is DPP4. As to the kind of experiment: DPP4 activity in GLUTag cells (fluorometric kit ab204722). The format is cell-based, mouse. To be noted: for effect of 18:1-LPA combined with LPAR antagonist on DPP4 activity in GLUTag cells: 2.5 uM 18:1-LPA 30 minutes, then 10 uM antagonist 2 hours; for effect of LPAR antagonist alone on DPP4 activity in GLUTag cells: 10 uM antagonist, 2 hours. As for the experimental part:
Briefly, GLUTag cells were grown to produce the recommended quantity needed for the assay according to the manufacturer's protocol (ab204722 Dipeptidyl peptidase IV Activity Assay Kit (Fluorometric)), and then the wells were treated in media containing charcoal-stripped FBS (10%), with either nothing (no treatment control), or vehicle control (0.05% DMSO), or 2.5 uM 18:1-LPA for 30 minutes, and then the inhibitors (as indicated in the graph of FIG. 17) were added to the vehicle wells and the 2.5 uM 18:1-LPA wells at 10 uM concentrations, as indicated on the graph (FIG. 17), for an additional 2 hours. Cells were then harvested according to the manufacturer's protocol, and lysed using reagents from the kit. Charcoal-stripped FBS was used to remove lipids, including LPA, from serum. Experiments were also carried out wherein the FBS was not stripped with charcoal, and the results were not different.
According to the manufacturer, dipeptidyl peptidase IV (DPP4) Activity Assay Kit (Fluorometric) (ab204722) is an assay where DPP4 cleaves a substrate to release a quenched fluorescent group, AMC (7-Amino-4-Methyl Coumarin), which can be easily detected at Ex/Em=360/460 nm. This assay is rapid, simple, sensitive, and reliable, as well as, suitable for high throughput activity screening of DPP4. This kit detects DPP4 activity as low as 3 ρU per well.

Assay [4] deals with T2, LPAR2 (Homo sapiens, UniProt Q9HBW0). To be noted: cited from earlier work.
T2 sequence (Q9HBW0 whole entry, species assumed): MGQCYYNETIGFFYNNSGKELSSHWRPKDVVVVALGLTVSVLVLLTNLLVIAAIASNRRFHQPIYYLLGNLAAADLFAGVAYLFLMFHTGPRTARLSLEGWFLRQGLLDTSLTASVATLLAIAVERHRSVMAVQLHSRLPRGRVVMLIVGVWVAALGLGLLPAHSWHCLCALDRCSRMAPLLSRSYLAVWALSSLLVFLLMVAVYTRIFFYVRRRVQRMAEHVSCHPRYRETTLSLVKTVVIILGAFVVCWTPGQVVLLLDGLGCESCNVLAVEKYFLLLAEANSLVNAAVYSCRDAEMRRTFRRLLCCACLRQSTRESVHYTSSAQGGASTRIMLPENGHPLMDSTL
Assay [5] has as its system GLP-1. As to the kind of experiment: Circulating GLP-1 in mice injected with LPA, with or without LPAR antagonist pre-treatment. To be noted: for rescue of the fall in blood GLP-1 levels caused by LPA: antagonist 30 mg/kg by gavage 10 min before 50 mg/kg 18:1-LPA i.p., serum at 30 min (Examples 6, 8); for blood GLP-1 with antagonist alone versus vehicles: antagonist 30 mg/kg by gavage, no LPA. The format is in vivo. As for the experimental part:
We injected mice i.p. with vehicle (10% DMSO in isotonic saline) or 50 mg/kg of 1-oleoyl-2-hydroxy-LPA. Half of the mice injected with LPA were pre-injected with 5 mg/kg Ki-16425 10 minutes prior to receiving LPA. Thirty minutes later, samples of blood were taken by cardiac puncture, and circulating active GLP-1 levels in plasma were analysed by enzyme linked immunosorbent assay.
(§1) The experimental protocol was as follows: • 1. Mice were administered an LPAR antagonist drug, either by oral gavage (for BMS986020, SARI 00842, AM966, AM095, or H2L51863030), or by i.p. injection (for Ki-16425, and LPA2-antagonistl) at the doses indicated in the table below. • 2. Control mice were administered only the vehicle (a 10% DMSO solution) given via the same route as the comparison drug was administered. • 3. Ten minutes later, mice were injected i.p. either with isotonic saline, or with 50 mg/kg LPA. • 4. Thirty minutes later, mice were euthanized by cervical dyslocation, and blood was collected from the heart for preparation of serum that was stored at −80C until it was analyzed for total GLP-1 concentration by ELISA assay using a GLP-1 enzyme immunoassay kit.

Assay [6] concerns DPP4. The experiment in a line: DPP4 activity in serum of C57BI/6J mice. The format is in vivo. To be noted: for effect of antagonist on DPP4 activity in mouse serum: 30 mg/kg by gavage; for effect of 18:1-LPA combined with antagonist on DPP4 activity in mouse serum: antagonist 30 mg/kg by gavage then 50 mg/kg 18:1-LPA.
Assay [7] concerns the target T3, LPAR3 (Homo sapiens, UniProt Q9UBY5).
T3 sequence (Q9UBY5 1-353): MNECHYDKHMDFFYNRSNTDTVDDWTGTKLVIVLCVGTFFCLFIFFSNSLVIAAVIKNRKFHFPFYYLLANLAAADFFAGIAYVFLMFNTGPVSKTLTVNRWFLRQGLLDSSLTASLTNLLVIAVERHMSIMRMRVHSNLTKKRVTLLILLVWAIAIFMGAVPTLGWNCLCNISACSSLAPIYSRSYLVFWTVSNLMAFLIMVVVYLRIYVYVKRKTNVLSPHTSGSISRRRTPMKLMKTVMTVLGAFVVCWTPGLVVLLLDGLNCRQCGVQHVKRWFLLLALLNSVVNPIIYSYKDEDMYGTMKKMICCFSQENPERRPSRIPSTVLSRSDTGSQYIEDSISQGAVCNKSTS
To be noted: cited from earlier work.

Assay [8] concerns insulin secretion. As to conditions: prior study, Rancoule et al. 2013; cited from earlier work.
The test system of assay [9] is DPP4. As to the kind of experiment: DPP4 activity in serum of C57BI/6J mice. The format is in vivo. As to conditions: 50 mg/kg 18:1-LPA i.p., serum 30 minutes later. As for the experimental part: Mice were injected with 5 mg/kg Ki16425 or control (10% DMSO in isotonic saline), then injected 10 mins later with 50 mg/kg 1-18:1-LPA or saline (vehicle control), then euthanized 30 minutes later for serum collection and analysis.
as §1, with “(for” for “(for BMS986020,”, “00842” for “00842, AM966, AM095,”, “AM966),” for “H2L51863030),”, “Ki-16425)” for “Ki-16425, and LPA2-antagonistl)”, “18:1-LPA.” for “LPA.”

For assay [10], the system named is GLUTag cells. The experiment in a line: GLP-1 secretion from cultured GLUTag cells treated with LPA and/or LPAR antagonist. Format: cell-based, mouse. The method, then: We have grown GLUTag cells in culture to test effects of various LPA species and the LPAR 1/2/3 inhibitor Ki-16425. GLUTag cells are a well characterized L-cell line derived from a mouse intestinal tumour, which have been widely used to study the regulation of GLP-1. Briefly, GLUTag cells were grown until 80-90% confluent. Complete medium, containing fetal bovine serum, was replaced with medium containing charcoal[…] dextran treated serum, which removes lipids and hormones that could interfere with testing. […] This indicates a direct inhibitory effect of LPA at physiologically relevant levels on GLP-1 secretion by L-cells, and the ability of a commercially available LPAR antagonist to prevent this.
Experimental Protocol. Briefly, GLUTag cells were grown until 70-80% confluent. Complete medium (low glucose DMEM), containing fetal bovine serum, was replaced with medium containing charcoal-dextran treated serum, which removes lipids and hormones that could interfere with testing. Cells were then treated with medium containing either DMSO as vehicle control (0.1% v/v), 2.5 μM LPA, 10 μM LPAR antagonist, or a combination of the LPA species and inhibitors. For cells treated with both LPA plus LPAR inhibitor: cells were pre-treated with LPA for 30 minutes and then 10 uM LPAR inhibitor was added to the respective wells for a further 2 hours. For cells treated with LPA only, or vehicle only, the total treatment time was 2.5 hours. For cells treated with antagonist only, the treatment time was 2 hours.

Assay [11] has as its target T4, LPAR4 (Homo sapiens, UniProt Q99677).
T4 construct: host or cells: CHO cells
To be noted: cited from earlier work.

Assay [12] has as its target T5, LPAR5 (Homo sapiens, UniProt Q9H1C0).
T5 construct: host or cells: CHO cells
As to conditions: cited from earlier work.

Assay [13] addresses T3, LPAR3. To be noted: cited from earlier work. The source holds these as a separate data set.
The target of assay [14] is T2, LPAR2. As to conditions: cited from earlier work. This is another data set of the same source.

“Also recorded” adds a separate entry of the source. Where two headings read alike, the source gives them in different places.

T4 sequence (Q99677 whole entry, species assumed): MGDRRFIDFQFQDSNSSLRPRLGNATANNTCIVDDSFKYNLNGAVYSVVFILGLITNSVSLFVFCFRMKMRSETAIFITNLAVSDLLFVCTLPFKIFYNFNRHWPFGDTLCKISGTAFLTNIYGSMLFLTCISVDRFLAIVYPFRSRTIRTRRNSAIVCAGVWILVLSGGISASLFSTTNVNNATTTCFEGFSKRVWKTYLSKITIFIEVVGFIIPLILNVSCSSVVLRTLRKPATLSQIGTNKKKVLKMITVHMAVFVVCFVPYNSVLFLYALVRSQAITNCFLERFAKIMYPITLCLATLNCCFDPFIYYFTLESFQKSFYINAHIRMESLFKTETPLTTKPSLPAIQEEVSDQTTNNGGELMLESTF
T5 sequence (Q9H1C0 whole entry, species assumed): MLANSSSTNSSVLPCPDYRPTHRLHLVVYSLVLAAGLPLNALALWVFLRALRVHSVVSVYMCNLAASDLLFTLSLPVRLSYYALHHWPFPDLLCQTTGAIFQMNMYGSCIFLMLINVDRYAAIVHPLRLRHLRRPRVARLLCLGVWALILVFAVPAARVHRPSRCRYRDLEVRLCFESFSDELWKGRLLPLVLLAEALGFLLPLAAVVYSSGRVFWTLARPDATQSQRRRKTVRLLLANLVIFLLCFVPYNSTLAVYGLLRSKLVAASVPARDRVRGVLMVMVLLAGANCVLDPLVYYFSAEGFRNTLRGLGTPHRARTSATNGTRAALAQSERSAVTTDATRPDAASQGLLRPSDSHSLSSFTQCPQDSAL

The term IC50 denotes the point on the concentration scale where inhibition reaches its midpoint. In the case of `COc1ccc(C(=O)NC2(C(=O)O)Cc3ccccc3C2)cc1OCCc1cccc(C)c1` [SAR100842], the IC50 in assay [1] is 59 to 262 nM. Also, the IC50 in [2] is approximately 100 nM. Also, in assay [3], the “effect of 18:1-LPA combined with LPAR antagonist on DPP4 activity in GLUTag cells” value is “did not significantly affect” and the “effect of LPAR antagonist alone on DPP4 activity in GLUTag cells” value is on record as “did not significantly affect”. Besides, the “concentration up to which no activity with LPAR2” value in assay [4] (no activity up to) was > 10,000 nM. In addition, the concentration up to which no reported activity on LPAR2 in [4] (no reported activity up to) is more than 10 µM. Also, in assay [5], the “rescue of the fall in blood GLP-1 levels caused by LPA” value is “completely abrogated; also recorded: Complete rescues; also recorded: restored to normal levels” and the “blood GLP-1 with antagonist alone versus vehicles” value is reported as “indistinguishable from mice treated only with the vehicles”. Further, in assay [6], the “effect of antagonist on DPP4 activity in mouse serum” value is reported as “did not significantly affect; also recorded: lack of effect; also recorded: not significantly affected” and the “effect of 18:1-LPA combined with antagonist on DPP4 activity in mouse serum” value was “did not affect”. Moreover, in [7] (no activity up to), the “concentration up to which no activity with LPAR3” value was > 10,000 nM. For the same compound, the concentration up to which no reported activity on LPAR3 in assay [7] (no reported activity up to) is more than 10 µM.
Regarding lysophosphatidic acid [LPA], the “insulin secretion in mice injected with LPA” value in assay [8] was “impaired”. Moreover, the “effect of LPA on DPP4 activity in mouse serum” value in assay [9] is on record as “lack of effect; also recorded: not significantly affected”. The “effect of LPA on circulating GLP-1 levels (words)” value in assay [5] (50 mg/kg i.p., mice) is recorded as “suppressed”. In assay [5] (vehicle (10% DMSO)-treated mice, 50 mg/kg 18:1-LPA i.p., 30 min, serum (Example 6)), the “fall in serum GLP-1 levels after LPA injection” value was more than 50%.
On to `Cc1noc(-c2ccc(-c3ccc(CC(=O)O)cc3)cc2)c1NC(=O)O[C@H](C)c1ccccc1Cl` [AM966], for which the IC50 in assay [1] is 17 nM; in assay [11] (calcium assay, CHO cells, read-out: IC50, LPAR4) it was 7700 nM; in assay [11] (read-out: IC50, LPAR4, calcium release in CHO cells), 7700 nM; in [12] (calcium assay, CHO cells, read-out: IC50, LPAR5) it was 8600 nM; in assay [12] (read-out: IC50, LPAR5, calcium release in CHO cells), 8600 nM; in [13] (calcium assay, CHO cells, read-out: IC50, LPAR3), 1600 nM. For the same compound, the IC50 in assay [13] (read-out: IC50, LPAR3, calcium release in CHO cells) is 1600 nM; in [14] (calcium assay, CHO cells, read-out: IC50, LPAR2), 1700 nM; in assay [14] (read-out: IC50, LPAR2, calcium release in CHO cells) it was 1700 nM. In addition, in [1] (selectivity), the “fold lower affinity for LPAR2, LPAR3 (than LPAR1)” value is on record as approximately 10 fold. Besides, the “effect of LPAR antagonist alone on GLP-1 levels” value in assay [10] (10 μM antagonist alone, 2 h) is recorded as “no significant effect”. In addition, the “rescue of LPA-inhibited GLP-1 secretion by LPAR antagonist” value in assay [10] (10 μM antagonist plus 2.5 μM LPA) was “complete rescue”. In addition, the “effect of 18:1-LPA combined with LPAR antagonist on DPP4 activity in GLUTag cells” value in assay [3] was “did not significantly affect”. In addition, the “effect of LPAR antagonist alone on DPP4 activity in GLUTag cells” value in [3] is reported as “did not significantly affect”. Moreover, the “rescue of the fall in blood GLP-1 levels caused by LPA” value in assay [5] is “completely abrogated; also recorded: Complete rescues; also recorded: restored to normal levels”. The “blood GLP-1 with antagonist alone versus vehicles” value in [5] was “indistinguishable from mice treated only with the vehicles”. In assay [6], the “effect of antagonist on DPP4 activity in mouse serum” value is on record as “did not significantly affect; also recorded: lack of effect; also recorded: not significantly affected”. Also, the “effect of 18:1-LPA combined with antagonist on DPP4 activity in mouse serum” value in assay [6] is “did not affect”. For the same compound, the “level at which LPAR3 is antagonized” value in assay [7] is recorded as “low micromolar levels”.
